Results reported in US11484539B2, “Compounds and their uses for alleviating menopause-associated symptoms” (Estetra SPRL, priority 2018, dated 2022).

Tested on: post-menopausal women
Experiment: Weekly frequency of moderate to severe VMS, dose-finding study
Format: in vivo
Conditions: for Difference with placebo, LS adjusted mean, absolute change in weekly frequency of moderate to severe VMS / Difference with placebo, LS adjusted mean, relative change in weekly frequency of moderate to severe VMS: 2.5 mg E4 vs placebo
Text: To determine the Minimum Effective Dose (MED), firstly the selection criteria required that patients presented at least 7 moderate to severe VMS/day or at least 50 moderate to severe VMS/week in the week preceding randomization. Secondly, a placebo group was included in a double-blind fashion. Thirdly, the total patient number was such that statistical significance could be obtained between separate arms of the study. Fourthly, the absolute change from baseline in weekly frequency of moderate to severe VMS was taken into account. An analysis of covariance (ANCOVA) was performed based on the untransformed change in weekly frequency of moderate to severe VMS from baseline. Finally, the change in severity from baseline was evaluated. For this, the Severity Scoring System of VMS was documented by the subjects as follows: • a score of Mild (1) for a sensation of heat without sweating; • a score of Moderate (2) for a sensation of heat with sweating/the subject is able to continue activity; and • a score of Severe (3) for a sensation of heat with sweating/which causes cessation of activity.
Enrolment was approximately 18 months. Individual subject participation was up to 27 weeks: up to 6 weeks pre-screening and washout, up to 4 weeks screening and run-in period, up to 91 days (13 weeks) of E4/placebo treatment followed by 2 weeks (14 days) of progestin therapy and a Follow up visit 1 week after completion of progestin therapy in non-hysterectomised subjects only.
To define the minimum effective dose (MED) of the oral dose of E4 by evaluating changes in frequency and in severity of moderate to severe vasomotor symptoms (VMS).
This was a prospective, multicentre, randomised, placebo-controlled, double-blinded, dose-finding study.
Eligible subjects were hysterectomised and non-hysterectomised post-menopausal women aged 40 to 65 years, inclusive, presenting at least 7 moderate to severe hot flushes/day or at least 50 moderate to severe hot flushes/week.
The subjects have met all of the following inclusion criteria at the randomization visit. These criteria were assessed during the screening period: • 1. Women aged 40 to 65 years, inclusive, presenting at least 7 moderate to severe hot flushes/day or at least 50 moderate to severe hot flushes/week in the week preceding randomization. • 2. Body Mass Index (BMI) between 18.0 and 35.0 kg/m^2, inclusive. • 3. Post-menopausal status defined as levels of follicle stimulating hormone (FSH) >40 IU/L and: • amenorrhoea for at least 12 consecutive months or, • amenorrhoea for at least 6 months with estradiol (E2)<20 pg/mL or, • at least 6 weeks post-surgical bilateral oophorectomy with or without hysterectomy with a copy of the pathology report or a statement on letterhead from the subject's physician documenting both ovaries were removed is required. • 4. For non-hysterectomised women: intact uterus with bi-layer endometrial thickness […] on TVUS. • 5. Negative pregnancy test. • 6. Good physical and mental health, in the judgement of the Principal Investigator (PI), on the basis of medical, surgical and gynaecological history, physical examination, gynaecological examination, clinical laboratory, and vital signs. • 7. Subject has provided signed and dated written informed consent before admission to the study. • 8. Subject is able to understand and comply with the protocol requirements, instructions, and protocol-stated restrictions. Exclusion Criteria:
All treatments (Estetrol, hereinafter, E4, [2.5 mg, 5 mg, 10 mg, 15 mg] capsule) were administered once daily (QD) per os for at least 12 consecutive weeks until the last biological assessments (Day 91 maximum) had been performed.
In order to analyse the data recorded in this study, treatment groups have been compared using an ANCOVA (analysis of covariance) with respect to the change in weekly frequency of moderate to severe VMS from baseline to weeks 4 and 12. […]

[1] = 2.5 mg E4, week 4, ANCOVA with study centre
[2] = 2.5 mg E4, week 4, without site effect
[3] = 2.5 mg E4, week 12, ANCOVA with study centre
[4] = 2.5 mg E4, week 12, without site effect
[5] = week 4, ANCOVA with study centre
[6] = week 12, ANCOVA with study centre
[7] = 5 mg E4, week 4, ANCOVA with study centre
[8] = 5 mg E4, week 4, without site effect
[9] = 5 mg E4, week 12, ANCOVA with study centre
[10] = 5 mg E4, week 12, without site effect

C[C@]12CC[C@@H]3c4ccc(O)cc4CC[C@H]3[C@@H]1[C@@H](O)[C@@H](O)[C@@H]2O [E4, 1,3,5 (10)-estratrien-3,15alpha,16alpha,17beta-tetrol]
LS adjusted mean change from baseline in weekly frequency of moderate to severe VMS [1]: −32.26
LS adjusted mean relative change (%) from baseline in weekly frequency of moderate to severe VMS [1]: -48.5%
LS adjusted mean change from baseline in weekly frequency of moderate to severe VMS [2]: −32.68
LS adjusted mean relative change (%) from baseline in weekly frequency of moderate to severe VMS [2]: -49.5%
LS adjusted mean change from baseline in weekly frequency of moderate to severe VMS [3]: −40.13
LS adjusted mean relative change (%) from baseline in weekly frequency of moderate to severe VMS [3]: -60.6%
LS adjusted mean change from baseline in weekly frequency of moderate to severe VMS [4]: −40.68
LS adjusted mean relative change (%) from baseline in weekly frequency of moderate to severe VMS [4]: -62.2%
Mean change from baseline in weekly frequency of moderate to severe VMS (2.5 mg E4 QD per os, week 1): −17.28
Relative change (% from baseline) in weekly frequency of moderate to severe VMS, mean (2.5 mg E4 QD per os, week 1): −23%
Mean change from baseline in weekly frequency of moderate to severe VMS (2.5 mg E4 QD per os, week 2): −25.10
Relative change (% from baseline) in weekly frequency of moderate to severe VMS, mean (2.5 mg E4 QD per os, week 2): −34%
Mean change from baseline in weekly frequency of moderate to severe VMS (2.5 mg E4 QD per os, week 3): −32.46
Relative change (% from baseline) in weekly frequency of moderate to severe VMS, mean (2.5 mg E4 QD per os, week 3): −44%
Mean change from baseline in weekly frequency of moderate to severe VMS (2.5 mg E4 QD per os, week 4): −35.89
Relative change (% from baseline) in weekly frequency of moderate to severe VMS, mean (2.5 mg E4 QD per os, week 4): −49%
Mean change from baseline in weekly frequency of moderate to severe VMS (2.5 mg E4 QD per os, week 5): −37.16
Relative change (% from baseline) in weekly frequency of moderate to severe VMS, mean (2.5 mg E4 QD per os, week 5): −50%
Mean change from baseline in weekly frequency of moderate to severe VMS (2.5 mg E4 QD per os, week 6): −39.98
Relative change (% from baseline) in weekly frequency of moderate to severe VMS, mean (2.5 mg E4 QD per os, week 6): −54%
Mean change from baseline in weekly frequency of moderate to severe VMS (2.5 mg E4 QD per os, week 7): −42.44
Relative change (% from baseline) in weekly frequency of moderate to severe VMS, mean (2.5 mg E4 QD per os, week 7): −57%
Mean change from baseline in weekly frequency of moderate to severe VMS (2.5 mg E4 QD per os, week 8): −43.62
Relative change (% from baseline) in weekly frequency of moderate to severe VMS, mean (2.5 mg E4 QD per os, week 8): −58%
Mean change from baseline in weekly frequency of moderate to severe VMS (2.5 mg E4 QD per os, week 9): −45.19
Relative change (% from baseline) in weekly frequency of moderate to severe VMS, mean (2.5 mg E4 QD per os, week 9): −61%
Mean change from baseline in weekly frequency of moderate to severe VMS (2.5 mg E4 QD per os, week 10): −45.54
Relative change (% from baseline) in weekly frequency of moderate to severe VMS, mean (2.5 mg E4 QD per os, week 10): −61%
Mean change from baseline in weekly frequency of moderate to severe VMS (2.5 mg E4 QD per os, week 11): −44.74
Relative change (% from baseline) in weekly frequency of moderate to severe VMS, mean (2.5 mg E4 QD per os, week 11): −60%
Mean change from baseline in weekly frequency of moderate to severe VMS (2.5 mg E4 QD per os, week 12): −45.04
Relative change (% from baseline) in weekly frequency of moderate to severe VMS, mean (2.5 mg E4 QD per os, week 12): −61%
Difference with placebo, LS adjusted mean, absolute change in weekly frequency of moderate to severe VMS [5]: 1.536
Difference with placebo, LS adjusted mean, relative change in weekly frequency of moderate to severe VMS [5]: 0.005984
Difference with placebo, LS adjusted mean, absolute change in weekly frequency of moderate to severe VMS (week 4, without site effect): 0.9721
Difference with placebo, LS adjusted mean, relative change in weekly frequency of moderate to severe VMS (week 4, without site effect): −0.005455
Difference with placebo, LS adjusted mean, absolute change in weekly frequency of moderate to severe VMS [6]: 3.603
Difference with placebo, LS adjusted mean, relative change in weekly frequency of moderate to severe VMS [6]: 0.03673
Difference with placebo, LS adjusted mean, absolute change in weekly frequency of moderate to severe VMS (week 12, without site effect): 3.246
Difference with placebo, LS adjusted mean, relative change in weekly frequency of moderate to severe VMS (week 12, without site effect): 0.02897
LS adjusted mean change from baseline in weekly frequency of moderate to severe VMS [7]: −27.44
LS adjusted mean relative change (%) from baseline in weekly frequency of moderate to severe VMS [7]: -42.2%
LS adjusted mean change from baseline in weekly frequency of moderate to severe VMS [8]: −27.87
LS adjusted mean relative change (%) from baseline in weekly frequency of moderate to severe VMS [8]: -43.1%
LS adjusted mean change from baseline in weekly frequency of moderate to severe VMS [9]: −40.68
LS adjusted mean relative change (%) from baseline in weekly frequency of moderate to severe VMS [9]: -60.3%
LS adjusted mean change from baseline in weekly frequency of moderate to severe VMS [10]: −41.01
LS adjusted mean relative change (%) from baseline in weekly frequency of moderate to severe VMS [10]: -61.4%
Mean change from baseline in weekly frequency of moderate to severe VMS (5 mg E4 QD per os, week 1): −15.04
Relative change (% from baseline) in weekly frequency of moderate to severe VMS, mean (5 mg E4 QD per os, week 1): −23%
Mean change from baseline in weekly frequency of moderate to severe VMS (5 mg E4 QD per os, week 2): −21.68
